Assay results published in ChEMBL document CHEMBL4184154, “Docking based design of diastereoisomeric MTCA as GPIIb/IIIa receptor inhibitor” (Bioorg Med Chem Lett, 2017).
The source made the active and inactive calls. No cut-off for these calls is given here. Where a SMILES comes first, the peptide text is derived from it. Bridges are numbered along the chain shown (N, C = ends). [ ]: non-standard residue; d: D form. hArg = N=C(N)NCCCC[C@H](N)C(=O)O; Mpa = O=C(O)CCS

Experiments:
Platelet = assay: Antiplatelet activity in rat platelet-rich plasma assessed as inhibition of arachidonic acid-induced platelet aggregation by atomic force microscopic method; assay type: functional
Rattus norvegicus [1] = assay: Anti-thrombotic activity in Sprague-Dawley rat arterial thrombosis model assessed as reduction in thrombus weight at 1 umol/kg, po pretreated for 30 mins followed by thrombosis induction measured after 15 mins; assay type: functional, organism-based
Rattus norvegicus [2] = assay: Antiplatelet activity in Sprague Dawley rat arterial thrombosis model assessed as downregulation of GP2b/3a protein expression in plasma administered at 1 umol/kg, po by ELISA; assay type: functional, organism-based
[3] = biological target: T1, Integrin subunit alpha 2b/beta-3 (Rattus norvegicus) (UniProt D3ZAC0+Q8R2H2); assay: Inhibition of GP2b/3a in rat platelet-rich plasma assessed as reduction in arachidonic acid-induced platelet aggregation at 10^-8 to 10^-5 M after 5 mins by aggregometric analysis
[4] = biological target: T2, Integrin subunit alpha 2b/beta-3 (Rattus norvegicus, UniProt D3ZAC0+Q8R2H2); assay: Binding affinity to GP2b/3a in rat blood assessed as conformational change by measuring soluble GP2b/3a levels after 12 hrs by UV-spectrophotometric analysis
T2 sequence (D3ZAC0 whole entry): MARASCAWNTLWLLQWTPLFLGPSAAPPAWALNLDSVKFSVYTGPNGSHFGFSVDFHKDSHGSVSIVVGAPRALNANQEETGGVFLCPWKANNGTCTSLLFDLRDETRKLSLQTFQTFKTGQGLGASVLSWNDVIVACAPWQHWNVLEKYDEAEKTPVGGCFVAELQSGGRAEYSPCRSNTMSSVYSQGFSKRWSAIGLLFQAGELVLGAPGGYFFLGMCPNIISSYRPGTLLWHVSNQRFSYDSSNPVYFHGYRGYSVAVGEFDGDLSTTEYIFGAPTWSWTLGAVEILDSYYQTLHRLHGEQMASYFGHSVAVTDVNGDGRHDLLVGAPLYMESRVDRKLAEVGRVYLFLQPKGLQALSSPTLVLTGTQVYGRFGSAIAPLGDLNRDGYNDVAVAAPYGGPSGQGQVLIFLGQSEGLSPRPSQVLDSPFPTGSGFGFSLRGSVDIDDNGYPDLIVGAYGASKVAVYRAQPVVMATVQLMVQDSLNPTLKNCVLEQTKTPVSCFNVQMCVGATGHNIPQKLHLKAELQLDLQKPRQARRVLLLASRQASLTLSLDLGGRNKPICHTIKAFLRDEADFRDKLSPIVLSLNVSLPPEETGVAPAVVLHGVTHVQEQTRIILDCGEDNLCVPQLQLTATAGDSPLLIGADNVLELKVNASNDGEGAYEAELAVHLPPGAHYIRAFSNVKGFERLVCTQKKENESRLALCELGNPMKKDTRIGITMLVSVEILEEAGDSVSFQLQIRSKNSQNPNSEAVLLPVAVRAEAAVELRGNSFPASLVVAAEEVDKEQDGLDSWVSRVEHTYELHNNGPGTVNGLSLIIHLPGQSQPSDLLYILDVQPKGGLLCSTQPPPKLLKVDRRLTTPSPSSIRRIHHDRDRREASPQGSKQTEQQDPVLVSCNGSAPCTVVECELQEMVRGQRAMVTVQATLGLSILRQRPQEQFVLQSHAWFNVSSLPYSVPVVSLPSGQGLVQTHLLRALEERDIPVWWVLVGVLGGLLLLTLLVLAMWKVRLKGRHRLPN
T2 sequence (Q8R2H2 whole entry): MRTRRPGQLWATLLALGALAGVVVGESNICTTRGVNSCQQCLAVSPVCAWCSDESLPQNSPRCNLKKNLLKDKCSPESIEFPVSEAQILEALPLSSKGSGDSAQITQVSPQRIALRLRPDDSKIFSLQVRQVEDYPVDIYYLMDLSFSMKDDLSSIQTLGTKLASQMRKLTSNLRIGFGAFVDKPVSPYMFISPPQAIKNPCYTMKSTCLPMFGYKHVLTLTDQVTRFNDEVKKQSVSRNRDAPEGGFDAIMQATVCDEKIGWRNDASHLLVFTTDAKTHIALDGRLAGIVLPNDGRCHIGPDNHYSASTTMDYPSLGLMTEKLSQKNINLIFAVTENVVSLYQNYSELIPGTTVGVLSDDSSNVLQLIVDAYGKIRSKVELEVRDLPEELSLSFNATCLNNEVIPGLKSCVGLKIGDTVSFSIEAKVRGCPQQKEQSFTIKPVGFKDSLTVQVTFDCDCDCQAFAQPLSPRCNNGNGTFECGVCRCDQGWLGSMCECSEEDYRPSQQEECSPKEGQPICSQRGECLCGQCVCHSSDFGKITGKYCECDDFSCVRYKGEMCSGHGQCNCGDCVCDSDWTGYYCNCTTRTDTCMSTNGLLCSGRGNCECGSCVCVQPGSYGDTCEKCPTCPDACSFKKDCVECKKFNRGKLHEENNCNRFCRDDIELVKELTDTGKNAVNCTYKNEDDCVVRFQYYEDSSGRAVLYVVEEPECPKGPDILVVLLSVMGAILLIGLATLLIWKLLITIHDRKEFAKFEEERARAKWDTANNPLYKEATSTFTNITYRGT

[5] = biological target: T1, Integrin subunit alpha 2b/beta-3 (Rattus norvegicus); assay: Inhibition of GP2b/3a in rat platelet-rich plasma assessed as reduction in arachidonic acid-induced platelet aggregation at 10^-8 to 10^-2 M after 5 mins by aggregometric analysis
Rattus norvegicus [6] = assay: Anti-thrombotic activity in Sprague-Dawley rat arterial thrombosis model assessed as reduction in thrombus weight at 16.7 umol/kg, po pretreated for 30 mins followed by thrombosis induction measured after 15 mins; assay type: functional, organism-based

SMILES	Activity (Platelet)	MEC (Platelet)	Activity (Rattus norvegicus [1])	Activity (Rattus norvegicus [2])	inhibition [3]	EC50 [4] [nM]	inhibition [5]	Activity (Rattus norvegicus [6])
C[C@@H]1N[C@H](C(=O)O)Cc2c1[nH]c1ccccc21	Dose-dependent effect	1 ×10⁻⁵ M	Active	Active	Active	1660		
N=C(N)NCCC[C@H](N)C(=O)NCC(=O)N[C@@H](CC(=O)O)C(=O)N[C@@H](CO)C(=O)O							Active	
N=C(N)NCCCC[C@@H]1NC(=O)CCSSC[C@@H](C(N)=O)NC(=O)[C@@H]2CCCN2C(=O)[C@H](Cc2c[nH]c3ccccc23)NC(=O)[C@H](CC(=O)O)NC(=O)CNC1=O ([Mpa][hArg]GDWPC-NH2; disulfide 1-7)					Active			
CC(=O)Oc1ccccc1C(=O)O								Active
C[C@H]1N[C@H](C(=O)O)Cc2c1[nH]c1ccccc21	Dose-dependent effect	1 ×10⁻⁶ M	Active	Active	Active	1160		
